Data reported in ChEMBL document CHEMBL3739280, “12,17-Cyclojatrophane and Jatrophane Constituents of Euphorbia welwitschii” (J Nat Prod, 2015).

Assays:
[1] = Resistance index, ratio IC50 for human EPG85-257RDB cells to IC50 for human EPG85-257 cells; assay type: functional
[2] = Antiproliferative activity against human EPG85-257RDB cells after 5 days by SRB assay; assay type: functional, cell-based; conditions: 120 h
[3] = Resistance index, ratio IC50 for human EPP85-181RN cells to IC50 for human EPP85-181P cells; assay type: functional
[4] = Resistance index, ratio IC50 for human EPP85-181RDB cells to IC50 for human EPP85-181P cells; assay type: functional
[5] = Antiproliferative activity against human EPP85-181RN cells after 5 days by SRB assay; assay type: functional, cell-based; conditions: 120 h
[6] = Antiproliferative activity against human EPP85-181RDB cells after 5 days by SRB assay; assay type: functional, cell-based; conditions: 120 h

SMILES | Ratio IC50 [1] | IC50 [2] [µM] | Ratio IC50 [3] | Ratio IC50 [4] | IC50 [5] [µM] | IC50 [6] [µM]
C=C1[C@H](OC(=O)C(C)C)[C@@H](OC(=O)C(C)C)[C@@H](OC(=O)c2cccnc2)C(C)(C)[C@H](O)[C@H]2O[C@@]3(C[C@H](C)[C@H](OC(C)=O)[C@@H]3[C@H]1OC(C)=O)C(=O)[C@H]2C | 0.6 | 17.2 | – | – | – | –
C=C1[C@H](OC(=O)C(C)C)[C@@H](OC(=O)C(C)C)[C@@H](OC(=O)c2cccnc2)C(C)(C)[C@H]2O[C@@H]2[C@@H](C)C(=O)[C@@]2(O)C[C@H](C)[C@H](OC(C)=O)[C@@H]2[C@H]1OC(C)=O | 0.1 | 3.6 | 0.7 | 0.6 | 21.3 | 18.2
